These results are taken from EP4745137A1 (Gluetacs Therapeutics (Shanghai) Co., Ltd., priority 2023, dated 2025).

Holding throughout (type): cell-based
What all share (settings): 24 hours of compound treatment, 50 nM and 500 nM tested (concentration behind the class not stated)

The target of test [1] is T1, IKZF2 (Homo sapiens, UniProt Q96SW2+Q9UKS7).
T1 construct: endogenous in cells; host or cells: hPBMCs (Milecell Biotechnologies)
The test is described as follows: Western-blot assay of substrate protein degradation in hPBMCs, IKZF2.

The target of test [2] is T2, GSPT1 (Homo sapiens, UniProt P15170+Q96SW2).
T2 construct: endogenous in cells; host or cells: hPBMCs (Milecell Biotechnologies)
T2 sequence (P15170 whole entry): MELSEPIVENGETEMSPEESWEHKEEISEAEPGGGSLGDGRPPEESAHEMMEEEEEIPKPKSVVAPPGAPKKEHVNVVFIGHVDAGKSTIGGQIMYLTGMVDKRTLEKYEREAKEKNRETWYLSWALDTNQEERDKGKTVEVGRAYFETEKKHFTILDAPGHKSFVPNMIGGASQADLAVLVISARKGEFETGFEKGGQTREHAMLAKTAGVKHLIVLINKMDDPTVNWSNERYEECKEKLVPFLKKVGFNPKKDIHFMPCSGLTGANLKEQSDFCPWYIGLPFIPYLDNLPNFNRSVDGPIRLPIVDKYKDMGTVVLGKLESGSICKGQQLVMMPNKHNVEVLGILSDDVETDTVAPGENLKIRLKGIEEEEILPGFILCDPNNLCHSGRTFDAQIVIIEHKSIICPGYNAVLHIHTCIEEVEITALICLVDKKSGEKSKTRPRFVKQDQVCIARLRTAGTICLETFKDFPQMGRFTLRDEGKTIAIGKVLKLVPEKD
T2 sequence (Q96SW2 whole entry): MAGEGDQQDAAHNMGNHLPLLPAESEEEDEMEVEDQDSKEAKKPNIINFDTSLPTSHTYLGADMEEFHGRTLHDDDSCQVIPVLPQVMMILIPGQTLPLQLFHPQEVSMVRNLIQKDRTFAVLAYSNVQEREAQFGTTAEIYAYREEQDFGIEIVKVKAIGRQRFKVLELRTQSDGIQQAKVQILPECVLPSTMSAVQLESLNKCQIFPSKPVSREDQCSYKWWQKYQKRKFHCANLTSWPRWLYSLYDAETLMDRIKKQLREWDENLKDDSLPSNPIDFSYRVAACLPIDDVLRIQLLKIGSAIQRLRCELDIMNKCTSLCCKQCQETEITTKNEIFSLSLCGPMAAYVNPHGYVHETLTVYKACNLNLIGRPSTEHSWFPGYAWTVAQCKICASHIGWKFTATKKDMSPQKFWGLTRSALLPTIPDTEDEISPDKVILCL
T2 sequence (Q16531 whole entry partner): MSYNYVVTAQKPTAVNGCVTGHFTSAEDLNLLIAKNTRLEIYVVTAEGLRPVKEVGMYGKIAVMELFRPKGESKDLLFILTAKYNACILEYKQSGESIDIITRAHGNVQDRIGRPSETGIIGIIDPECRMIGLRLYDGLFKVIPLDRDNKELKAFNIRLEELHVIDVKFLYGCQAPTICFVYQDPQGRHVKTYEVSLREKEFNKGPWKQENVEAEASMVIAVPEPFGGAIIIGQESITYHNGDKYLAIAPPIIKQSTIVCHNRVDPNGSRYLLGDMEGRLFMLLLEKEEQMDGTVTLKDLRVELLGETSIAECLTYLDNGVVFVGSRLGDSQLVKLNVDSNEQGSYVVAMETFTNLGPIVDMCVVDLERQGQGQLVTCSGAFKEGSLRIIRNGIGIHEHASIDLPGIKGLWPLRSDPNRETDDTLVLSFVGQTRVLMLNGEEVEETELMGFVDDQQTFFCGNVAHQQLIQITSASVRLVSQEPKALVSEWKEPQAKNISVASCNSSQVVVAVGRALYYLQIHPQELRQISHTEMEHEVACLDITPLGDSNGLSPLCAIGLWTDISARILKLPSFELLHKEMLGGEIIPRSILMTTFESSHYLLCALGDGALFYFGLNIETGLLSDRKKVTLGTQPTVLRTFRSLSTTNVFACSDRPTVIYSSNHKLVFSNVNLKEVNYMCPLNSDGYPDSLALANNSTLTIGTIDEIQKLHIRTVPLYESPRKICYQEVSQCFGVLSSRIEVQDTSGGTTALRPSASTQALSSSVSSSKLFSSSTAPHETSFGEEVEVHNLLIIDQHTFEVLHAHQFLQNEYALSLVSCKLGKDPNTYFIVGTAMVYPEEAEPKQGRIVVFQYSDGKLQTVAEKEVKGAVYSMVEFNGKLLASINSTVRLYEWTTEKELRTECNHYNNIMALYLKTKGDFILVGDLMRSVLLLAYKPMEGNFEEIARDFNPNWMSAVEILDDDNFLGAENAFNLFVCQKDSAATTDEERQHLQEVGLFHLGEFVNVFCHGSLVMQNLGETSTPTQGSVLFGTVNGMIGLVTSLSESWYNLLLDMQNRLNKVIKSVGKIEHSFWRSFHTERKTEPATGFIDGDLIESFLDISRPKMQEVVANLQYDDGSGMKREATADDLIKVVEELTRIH
The test is described as follows: Western-blot assay of substrate protein degradation in hPBMCs, GSPT1.

The target of test [3] is T3, IKZF1 (Homo sapiens, UniProt Q13422+Q96SW2).
T3 construct: endogenous in cells; host or cells: hPBMCs (Milecell Biotechnologies)
T3 sequence (Q13422 whole entry): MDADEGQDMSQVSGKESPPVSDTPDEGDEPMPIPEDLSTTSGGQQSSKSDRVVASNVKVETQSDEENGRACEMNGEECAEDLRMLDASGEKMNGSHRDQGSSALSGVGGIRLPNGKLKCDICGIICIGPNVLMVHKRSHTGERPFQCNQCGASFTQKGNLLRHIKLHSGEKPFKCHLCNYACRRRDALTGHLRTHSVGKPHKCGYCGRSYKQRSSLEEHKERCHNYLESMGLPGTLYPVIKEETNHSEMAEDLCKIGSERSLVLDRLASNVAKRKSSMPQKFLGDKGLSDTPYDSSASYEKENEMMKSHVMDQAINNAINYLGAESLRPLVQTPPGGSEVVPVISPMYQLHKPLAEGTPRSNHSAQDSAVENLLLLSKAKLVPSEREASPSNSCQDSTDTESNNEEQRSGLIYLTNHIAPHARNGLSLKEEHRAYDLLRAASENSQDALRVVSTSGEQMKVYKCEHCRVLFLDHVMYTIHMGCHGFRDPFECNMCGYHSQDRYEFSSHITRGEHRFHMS
T3 sequence (Q96SW2 whole entry): as the sequence (Q96SW2 whole entry) above
T3 sequence (Q16531 whole entry partner): as the sequence (Q16531 whole entry partner) above
The test is described as follows: Western-blot assay of substrate protein degradation in hPBMCs, IKZF1.

Test [4] deals with T4, WEE1 (Homo sapiens, UniProt P30291+Q96SW2).
T4 construct: endogenous in cells; host or cells: hPBMCs (Milecell Biotechnologies)
T4 sequence (P30291 whole entry): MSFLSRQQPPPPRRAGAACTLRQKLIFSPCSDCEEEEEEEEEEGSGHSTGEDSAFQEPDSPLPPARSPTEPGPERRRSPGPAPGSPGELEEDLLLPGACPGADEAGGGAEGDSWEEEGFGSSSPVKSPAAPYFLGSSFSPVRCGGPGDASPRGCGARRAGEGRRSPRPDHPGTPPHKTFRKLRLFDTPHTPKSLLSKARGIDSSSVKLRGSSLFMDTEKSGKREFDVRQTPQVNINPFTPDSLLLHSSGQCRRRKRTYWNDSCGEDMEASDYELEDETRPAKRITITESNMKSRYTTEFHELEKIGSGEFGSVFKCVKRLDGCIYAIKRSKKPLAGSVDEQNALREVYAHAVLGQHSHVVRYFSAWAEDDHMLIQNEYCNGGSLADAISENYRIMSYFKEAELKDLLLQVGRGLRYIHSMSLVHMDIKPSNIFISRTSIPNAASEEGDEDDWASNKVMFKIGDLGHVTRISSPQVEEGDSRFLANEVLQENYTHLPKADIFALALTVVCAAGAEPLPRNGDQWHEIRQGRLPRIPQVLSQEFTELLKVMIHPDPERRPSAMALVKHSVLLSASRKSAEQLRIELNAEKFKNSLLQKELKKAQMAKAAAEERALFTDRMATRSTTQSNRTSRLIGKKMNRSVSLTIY
T4 sequence (Q96SW2 whole entry): as the sequence (Q96SW2 whole entry) above
T4 sequence (Q16531 whole entry partner): as the sequence (Q16531 whole entry partner) above
The test is described as follows: Western-blot assay of substrate protein degradation in hPBMCs, WEE1.

Test [5] deals with T5, CK1α (Homo sapiens, UniProt P48729+Q96SW2).
T5 construct: endogenous in cells; host or cells: hPBMCs (Milecell Biotechnologies)
T5 sequence (P48729 whole entry): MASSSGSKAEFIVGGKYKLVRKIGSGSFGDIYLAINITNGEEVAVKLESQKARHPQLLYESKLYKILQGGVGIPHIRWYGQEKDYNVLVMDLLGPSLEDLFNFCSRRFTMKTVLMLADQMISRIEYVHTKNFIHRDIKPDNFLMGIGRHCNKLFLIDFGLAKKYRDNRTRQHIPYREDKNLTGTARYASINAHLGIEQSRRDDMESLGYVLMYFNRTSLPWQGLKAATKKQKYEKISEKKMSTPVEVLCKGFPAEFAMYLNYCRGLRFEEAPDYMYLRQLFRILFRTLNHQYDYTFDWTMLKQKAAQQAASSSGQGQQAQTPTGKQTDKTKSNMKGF
T5 sequence (Q96SW2 whole entry): as the sequence (Q96SW2 whole entry) above
T5 sequence (Q16531 whole entry partner): as the sequence (Q16531 whole entry partner) above
The test is described as follows: Western-blot assay of substrate protein degradation in hPBMCs, CK1α.

Test [6] has as its target T6, IKZF3 (Homo sapiens, UniProt Q96SW2+Q9UKT9).
T6 construct: endogenous in cells; host or cells: hPBMCs (Milecell Biotechnologies)
Kind of test: Western-blot assay of substrate protein degradation in hPBMCs, IKZF3.

T6 sequence (Q9UKT9 whole entry): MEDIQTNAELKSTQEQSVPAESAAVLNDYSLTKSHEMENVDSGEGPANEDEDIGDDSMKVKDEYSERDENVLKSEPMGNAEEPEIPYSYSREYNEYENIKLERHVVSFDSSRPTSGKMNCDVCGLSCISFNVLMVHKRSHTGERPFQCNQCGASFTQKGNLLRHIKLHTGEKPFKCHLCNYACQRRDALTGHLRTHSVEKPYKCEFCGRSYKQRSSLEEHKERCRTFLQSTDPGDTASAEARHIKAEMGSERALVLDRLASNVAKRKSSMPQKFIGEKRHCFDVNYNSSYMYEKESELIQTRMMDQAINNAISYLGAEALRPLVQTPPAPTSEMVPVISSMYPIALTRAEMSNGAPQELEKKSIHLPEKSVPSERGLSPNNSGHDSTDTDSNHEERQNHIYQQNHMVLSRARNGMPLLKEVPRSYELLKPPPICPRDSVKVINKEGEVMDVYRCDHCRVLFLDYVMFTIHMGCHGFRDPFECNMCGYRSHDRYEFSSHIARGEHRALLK
T6 sequence (Q96SW2 whole entry): as the sequence (Q96SW2 whole entry) above
T6 sequence (Q16531 whole entry partner): as the sequence (Q16531 whole entry partner) above

`O=C1CCC(N2C(=O)c3ccc(CN4CCN(c5cc(F)ccc5F)CC4)cc3C2=O)C(=O)N1` (stereo not drawn) [GT-06362, 5-((4-(2,5-difluorophenyl)piperazin-1-yl)methyl)-2-(2,6-dioxopiperidin-3-yl)isoindoline-1,3-dione]: the “IKZF2 substrate protein remaining %” value in test [1] is listed as “B (80%< substrate protein remaining %≤ 100%)”. Moreover, the “GSPT1 substrate protein remaining %” value in test [2] was “A (0% ≤ substrate protein remaining % ≤ 80%)”. For the same compound, the “IKZF 1 substrate protein remaining %” value in test [3] is listed as “B (80%< substrate protein remaining %≤ 100%)”. In test [4], the “Weel substrate protein remaining %” value is “B (80%< substrate protein remaining %≤ 100%)”. Besides, the “CK1a substrate protein remaining %” value in test [5] was “B (80%< substrate protein remaining %≤ 100%)”. Besides, the “IKZF3 substrate protein remaining %” value in test [6] is “B (80%< substrate protein remaining %≤ 100%)”.

Regarding `O=C1CCC(N2C(=O)c3ccc(CN4CCN(c5c(F)cccc5F)CC4)cc3C2=O)C(=O)N1` (stereo not drawn) [GT-06363, 5-((4-(2,6-difluorophenyl)piperazin-1-yl)methyl)-2-(2,6-dioxopiperidin-3-yl)isoindoline-1,3-dione], the “IKZF2 substrate protein remaining %” value in test [1] is on record as “B (80%< substrate protein remaining %≤ 100%)”. In addition, the “GSPT1 substrate protein remaining %” value in test [2] was “A (0% ≤ substrate protein remaining % ≤ 80%)”. Further, the “IKZF 1 substrate protein remaining %” value in test [3] is recorded as “A (0% ≤ substrate protein remaining % ≤ 80%)”. For the same compound, the “Weel substrate protein remaining %” value in test [4] was “B (80%< substrate protein remaining %≤ 100%)”. Also, in test [5], the “CK1a substrate protein remaining %” value is reported as “B (80%< substrate protein remaining %≤ 100%)”. Further, the “IKZF3 substrate protein remaining %” value in test [6] is “B (80%< substrate protein remaining %≤ 100%)”.

Take `O=C1CCC(N2C(=O)c3ccc(CN4CCN(c5ccc(F)c(F)c5)CC4)cc3C2=O)C(=O)N1` (stereo not drawn) [GT-06364, 5-((4-(3,4-difluorophenyl)piperazin-1-yl)methyl)-2-(2,6-dioxopiperidin-3-yl)isoindoline-1,3-dione]: in test [1], the “IKZF2 substrate protein remaining %” value is reported as “B (80%< substrate protein remaining %≤ 100%)”. Further, the “GSPT1 substrate protein remaining %” value in test [2] is listed as “A (0% ≤ substrate protein remaining % ≤ 80%)”. Moreover, the “IKZF 1 substrate protein remaining %” value in test [3] is listed as “B (80%< substrate protein remaining %≤ 100%)”. The “Weel substrate protein remaining %” value in test [4] is recorded as “B (80%< substrate protein remaining %≤ 100%)”. Also, the “CK1a substrate protein remaining %” value in test [5] is given as “B (80%< substrate protein remaining %≤ 100%)”. In test [6], the “IKZF3 substrate protein remaining %” value was “B (80%< substrate protein remaining %≤ 100%)”.

For `O=C1CCC(N2C(=O)c3ccc(CN4CCN(c5cc(F)cc(F)c5)CC4)cc3C2=O)C(=O)N1` (stereo not drawn) [GT-06365, 5-((4-(3,5-difluorophenyl)piperazin-1-yl)methyl)-2-(2,6-dioxopiperidin-3-yl)isoindoline-1,3-dione], in test [1], the “IKZF2 substrate protein remaining %” value is recorded as “B (80%< substrate protein remaining %≤ 100%)”. Also, the “GSPT1 substrate protein remaining %” value in test [2] is “A (0% ≤ substrate protein remaining % ≤ 80%)”. Also, in test [3], the “IKZF 1 substrate protein remaining %” value was “B (80%< substrate protein remaining %≤ 100%)”. Moreover, the “Weel substrate protein remaining %” value in test [4] is listed as “B (80%< substrate protein remaining %≤ 100%)”. For the same compound, the “CK1a substrate protein remaining %” value in test [5] is “B (80%< substrate protein remaining %≤ 100%)”. In addition, in test [6], the “IKZF3 substrate protein remaining %” value is “B (80%< substrate protein remaining %≤ 100%)”.

In the case of `Cc1ccc(N2CCN(Cc3ccc4c(c3)C(=O)N(C3CCC(=O)NC3=O)C4=O)CC2)c(C)c1` (stereo not drawn) [GT-06366, 5-((4-(2,4-dimethylphenyl)piperazin-1-yl)methyl)-2-(2,6-dioxopiperidin-3-yl)isoindoline-1,3-dione], the “IKZF2 substrate protein remaining %” value in test [1] is on record as “A (0% ≤ substrate protein remaining % ≤ 80%)”. Also, in test [2], the “GSPT1 substrate protein remaining %” value is “A (0% ≤ substrate protein remaining % ≤ 80%)”. In addition, in test [3], the “IKZF 1 substrate protein remaining %” value was “B (80%< substrate protein remaining %≤ 100%)”. In addition, in test [4], the “Weel substrate protein remaining %” value was “B (80%< substrate protein remaining %≤ 100%)”. Further, the “CK1a substrate protein remaining %” value in test [5] is “B (80%< substrate protein remaining %≤ 100%)”. In test [6], the “IKZF3 substrate protein remaining %” value is given as “A (0% ≤ substrate protein remaining % ≤ 80%)”.

Consider `Cc1ccc(Cl)cc1N1CCN(Cc2ccc3c(c2)C(=O)N(C2CCC(=O)NC2=O)C3=O)CC1` (stereo not drawn) [GT-06367, 5-((4-(5-chloro-2-methylphenyl)piperazin-1-yl)methyl)-2-(2,6-dioxopiperidin-3-yl)isoindoline-1,3-dione], for which the “IKZF2 substrate protein remaining %” value in test [1] is reported as “A (0% ≤ substrate protein remaining % ≤ 80%)”. Further, in test [2], the “GSPT1 substrate protein remaining %” value is on record as “A (0% ≤ substrate protein remaining % ≤ 80%)”. Moreover, in test [3], the “IKZF 1 substrate protein remaining %” value was “B (80%< substrate protein remaining %≤ 100%)”. In addition, the “Weel substrate protein remaining %” value in test [4] is “A (0% ≤ substrate protein remaining % ≤ 80%)”. Further, in test [5], the “CK1a substrate protein remaining %” value is recorded as “B (80%< substrate protein remaining %≤ 100%)”. Also, the “IKZF3 substrate protein remaining %” value in test [6] was “A (0% ≤ substrate protein remaining % ≤ 80%)”.

As for `O=C1CCC(N2C(=O)c3ccc(CN4CCC(c5ccccc5)CC4)cc3C2=O)C(=O)N1` (stereo not drawn) [GT-06368, 2-(2,6-dioxopiperidin-3-yl)-5-((4-phenylpiperidin-1-yl)methyl)isoindoline-1,3-dione], the “IKZF2 substrate protein remaining %” value in test [1] is reported as “A (0% ≤ substrate protein remaining % ≤ 80%)”. In addition, the “GSPT1 substrate protein remaining %” value in test [2] is reported as “A (0% ≤ substrate protein remaining % ≤ 80%)”. In addition, in test [3], the “IKZF 1 substrate protein remaining %” value was “B (80%< substrate protein remaining %≤ 100%)”. Besides, the “Weel substrate protein remaining %” value in test [4] is “A (0% ≤ substrate protein remaining % ≤ 80%)”. In addition, the “CK1a substrate protein remaining %” value in test [5] is on record as “A (0% ≤ substrate protein remaining % ≤ 80%)”. In addition, the “IKZF3 substrate protein remaining %” value in test [6] is recorded as “A (0% ≤ substrate protein remaining % ≤ 80%)”.

For the compound `O=C1CCC(N2C(=O)c3ccc(CN4CCC(c5cccc(Br)c5)CC4)cc3C2=O)C(=O)N1` (stereo not drawn) [GT-06369, 5-((4-(3-bromophenyl)piperidin-1-yl)methyl)-2-(2,6-dioxopiperidin-3-yl)isoindoline-1,3-dione], in test [1], the “IKZF2 substrate protein remaining %” value is on record as “A (0% ≤ substrate protein remaining % ≤ 80%)”. Further, the “GSPT1 substrate protein remaining %” value in test [2] is given as “A (0% ≤ substrate protein remaining % ≤ 80%)”. Besides, the “IKZF 1 substrate protein remaining %” value in test [3] is on record as “A (0% ≤ substrate protein remaining % ≤ 80%)”. Moreover, the “Weel substrate protein remaining %” value in test [4] was “A (0% ≤ substrate protein remaining % ≤ 80%)”. In addition, in test [5], the “CK1a substrate protein remaining %” value is reported as “A (0% ≤ substrate protein remaining % ≤ 80%)”. The “IKZF3 substrate protein remaining %” value in test [6] is given as “A (0% ≤ substrate protein remaining % ≤ 80%)”.

Take `O=C1CCC(N2C(=O)c3ccc(CN4CCC(c5ccc(Br)cc5)CC4)cc3C2=O)C(=O)N1` (stereo not drawn) [GT-06370, 5-((4-(4-bromophenyl)piperidin-1-yl)methyl)-2-(2,6-dioxopiperidin-3-yl)isoindoline-1,3-dione]: the “IKZF2 substrate protein remaining %” value in test [1] is given as “A (0% ≤ substrate protein remaining % ≤ 80%)”. Moreover, the “GSPT1 substrate protein remaining %” value in test [2] is “A (0% ≤ substrate protein remaining % ≤ 80%)”. Also, the “IKZF 1 substrate protein remaining %” value in test [3] is recorded as “B (80%< substrate protein remaining %≤ 100%)”. Also, in test [4], the “Weel substrate protein remaining %” value is recorded as “A (0% ≤ substrate protein remaining % ≤ 80%)”. Besides, in test [5], the “CK1a substrate protein remaining %” value is recorded as “A (0% ≤ substrate protein remaining % ≤ 80%)”. In test [6], the “IKZF3 substrate protein remaining %” value is “A (0% ≤ substrate protein remaining % ≤ 80%)”.

With `O=C1CCC(N2C(=O)c3ccc(CN4CCC(c5ccccc5Cl)CC4)cc3C2=O)C(=O)N1` (stereo not drawn) [GT-06371, 5-((4-(2-chlorophenyl)piperidin-1-yl)methyl)-2-(2,6-dioxopiperidin-3-yl)isoindoline-1,3-dione], the “IKZF2 substrate protein remaining %” value in test [1] is “B (80%< substrate protein remaining %≤ 100%)”. In test [2], the “GSPT1 substrate protein remaining %” value is reported as “A (0% ≤ substrate protein remaining % ≤ 80%)”. Moreover, in test [3], the “IKZF 1 substrate protein remaining %” value is reported as “A (0% ≤ substrate protein remaining % ≤ 80%)”. Further, the “Weel substrate protein remaining %” value in test [4] is recorded as “B (80%< substrate protein remaining %≤ 100%)”. The “CK1a substrate protein remaining %” value in test [5] was “B (80%< substrate protein remaining %≤ 100%)”. Moreover, the “IKZF3 substrate protein remaining %” value in test [6] is listed as “B (80%< substrate protein remaining %≤ 100%)”.

Consider `O=C1CCC(N2C(=O)c3ccc(CN4CCC(c5ccc(Cl)cc5)CC4)cc3C2=O)C(=O)N1` (stereo not drawn) [GT-06372, 5-((4-(4-chlorophenyl)piperidin-1-yl)methyl)-2-(2,6-dioxopiperidin-3-yl)isoindoline-1,3-dione], for which the “IKZF2 substrate protein remaining %” value in test [1] was “A (0% ≤ substrate protein remaining % ≤ 80%)”. Also, the “GSPT1 substrate protein remaining %” value in test [2] is recorded as “A (0% ≤ substrate protein remaining % ≤ 80%)”. Also, the “IKZF 1 substrate protein remaining %” value in test [3] is listed as “A (0% ≤ substrate protein remaining % ≤ 80%)”. The “Weel substrate protein remaining %” value in test [4] was “A (0% ≤ substrate protein remaining % ≤ 80%)”. In addition, the “CK1a substrate protein remaining %” value in test [5] was “B (80%< substrate protein remaining %≤ 100%)”. Moreover, in test [6], the “IKZF3 substrate protein remaining %” value was “B (80%< substrate protein remaining %≤ 100%)”.

For the compound `O=C1CCC(N2C(=O)c3ccc(CN4CCC(c5ccccc5F)CC4)cc3C2=O)C(=O)N1` (stereo not drawn) [GT-06373, 2-(2,6-dioxopiperidin-3-yl)-5-((4-(2-fluorophenyl)piperidin-1-yl)methyl)isoindoline-1,3-dione], the “IKZF2 substrate protein remaining %” value in test [1] is on record as “A (0% ≤ substrate protein remaining % ≤ 80%)”. In test [2], the “GSPT1 substrate protein remaining %” value is “A (0% ≤ substrate protein remaining % ≤ 80%)”. Further, the “IKZF 1 substrate protein remaining %” value in test [3] is on record as “A (0% ≤ substrate protein remaining % ≤ 80%)”. In test [4], the “Weel substrate protein remaining %” value is given as “A (0% ≤ substrate protein remaining % ≤ 80%)”. Also, the “CK1a substrate protein remaining %” value in test [5] was “B (80%< substrate protein remaining %≤ 100%)”. The “IKZF3 substrate protein remaining %” value in test [6] is given as “B (80%< substrate protein remaining %≤ 100%)”.
